Source: patent US20220402932A1, “Compounds Constituting C20-Modified Salinomycin Derivatives, a Method for Obtaining the Same, a Composition Containing the Same, a Use of Said Compounds and a Method for Obtaining an Intermediate Product” (FILECLO SP. Z O.O., priority 2020, published 2022)

Assays:
[1] = test system: advanced head, neck, breast and ovarian cancer; conditions: small group of patients with advanced head; cited from earlier work
[2] = test system: cancer cell lines B16-F0, Hs294T, LoVo, LoVo/DX, MCF-7, MV-4-11; assay: In vitro cytotoxicity tests (SRB / MTT) on cancer cell lines; format: cell-based, human and murine; conditions: versus salinomycin; from Table 3 IC50 data; 72 hours incubation
Protocol: (§1) The solvent for further dilutions was a culture medium.
(§2) The experiments were repeated at least 3 times.
(§3) After 4 hours of incubation at 37° C., 80 μL of lysis buffer was added to each well.

[3] = test system: MV-4-11 (human biphenotypic leukaemia); assay: In vitro cytotoxicity test, MTT assay, MV-4-11; format: cell-based; conditions: 72 hours incubation
Protocol: as §1, §2, §3

| Compound | effect on cancer progression [1] | side effects [1] | anti-proliferative effect compared to the parent compound [2] | effect against biphenotypic leukaemia cells [3] |
| --- | --- | --- | --- | --- |
| CC[C@@H](C(=O)[C@@H](C)[C@@H](O)[C@H](C)[C@@H]1O[C@@H]([C@@H](CC)C(=O)O)CC[C@@H]1C)[C@H]1O[C@]2(C=C[C@@H](O)[C@]3(CC[C@@](C)([C@H]4CC[C@](O)(CC)[C@H](C)O4)O3)O2)[C@H](C)C[C@@H]1C [Salinomycin] | inhibition of cancer progression | no acute side effects | – | – |
| CC[C@@H](C(=O)[C@@H](C)[C@@H](O)[C@H](C)[C@@H]1O[C@@H]([C@@H](CC)C(=O)O)CC[C@@H]1C)[C@H]1O[C@]2(C=C[C@@H](NC(=O)C(C)C)[C@]3(CC[C@@](C)([C@H]4CC[C@](O)(CC)[C@H](C)O4)O3)O2)[C@H](C)C[C@@H]1C [formula (10), C20-dehydroxy-C20-aminosalinomycin N-isobutyramide] | – | – | several times more potent | – |
| CC[C@@H](C(=O)[C@@H](C)[C@@H](O)[C@H](C)[C@@H]1O[C@@H]([C@@H](CC)C(=O)O)CC[C@@H]1C)[C@H]1O[C@]2(C=C[C@@H](NC(=O)c3ccccc3)[C@]3(CC[C@@](C)([C@H]4CC[C@](O)(CC)[C@H](C)O4)O3)O2)[C@H](C)C[C@@H]1C [formula (15), C20-dehydroxy-C20-aminosalinomycin N-benzamide] | – | – | several times more potent | – |
| C#CCOC(=O)N[C@@H]1C=C[C@]2(O[C@H]([C@@H](CC)C(=O)[C@@H](C)[C@@H](O)[C@H](C)[C@@H]3O[C@@H]([C@@H](CC)C(=O)O)CC[C@@H]3C)[C@@H](C)C[C@H]2C)O[C@@]12CC[C@@](C)([C@H]1CC[C@](O)(CC)[C@H](C)O1)O2 [formula (22), C20-dehydroxy-C20-aminosalinomycin N-propargylcarbamate] | – | – | tens of times more potent | – |
| CC[C@@H](C(=O)[C@@H](C)[C@@H](O)[C@H](C)[C@@H]1O[C@@H]([C@@H](CC)C(=O)[O-])CC[C@@H]1C)[C@H]1O[C@]2(C=C[C@@H](NC(=O)NCCCCl)[C@]3(CC[C@@](C)([C@H]4CC[C@](O)(CC)[C@H](C)O4)O3)O2)[C@H](C)C[C@@H]1C.[Na+] [formula (25), 3-chloropropylurea of C20-dehydroxy-C20-aminosalinomycin] | – | – | tens of times more potent | preferred effect |
